Source: patent publication US7759345B2, “Antitumoral derivatives of ET-743” (priority 2001, dated 2010)
Read-outs that look alike come from different tables or passages of the source.

Tests used:
SK-BR-3 = test: Inhibition of cells growth by colorimetric assay (SRB), SK-BR-3; type: cell-based; settings: SRB, 48 hours exposure; for GI50 / CC50: Homo sapiens, SK-BR-3, 48 h; for GI50 / SK-BR3 TGI: SK-BR3; for GI50: read-out: SK-BR3 GI50; for CC50: read-out: SK-BR3 LC50, SK-BR3
Summary of the method: (§1)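 Human cancer cells (5×10^3/well) attached 18 h in RPMI 1640 10% FBS, then exposed 48 h at 37°C to compounds from 10 to 10^−8 μg/ml in DMSO/EtOH/PBS. TCA-fixed, SRB-stained, OD read at 490 nm; GI, TGI and LC derived from triplicate wells.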

K-562 = test: Inhibition of cells growth by colorimetric assay (SRB), K-562; type: cell-based; settings: SRB, 48 hours exposure; for GI50 / LC50 (50% cell killing): Homo sapiens, K562, 48 h; for GI50 / K-562 TGI: K-562; for GI50: read-out: K-562 GI50; for LC50 (50% cell killing): read-out: K-562 LC50, K-562
Summary of the method: as §1

SK-OV-3 = test: Inhibition of cells growth by colorimetric assay (SRB), SK-OV-3; type: cell-based; settings: SRB, 48 hours exposure; for GI50 / LC50: Homo sapiens, SK-OV-3, 48 h; for GI50 / SK-OV3 TGI: SK-OV3; for GI50: read-out: SK-OV3 GI50; for LC50: read-out: SK-OV3 LC50, SK-OV3
Summary of the method: as §1

IGROV-1 = test: Inhibition of cells growth by colorimetric assay (SRB), IGROV-1; type: cell-based; settings: SRB, 48 hours exposure; for GI50 / CC50: Homo sapiens, IGROV-1, 48 h; for GI50 / IGROV TGI: IGROV; for GI50: read-out: IGROV GI50; for CC50: read-out: IGROV LC50, IGROV
Summary of the method: as §1

DU-145 = test: Inhibition of cells growth by colorimetric assay (SRB), DU-145; type: cell-based; settings: SRB, 48 hours exposure; for GI50 / CC50: Homo sapiens, DU-145, 48 h; for DU-145 TGI / GI50: DU-145; for GI50: read-out: DU-145 GI50; for CC50: read-out: DU-145 LC50, DU-145
Summary of the method: as §1

PANC-1 = test: Inhibition of cells growth by colorimetric assay (SRB), PANC-1; type: cell-based; settings: SRB, 48 hours exposure; for GI50 / LC50 (concentration for 50% net cell kill): Homo sapiens, PANC-1, 48 h; for GI50 / PANC-1 TGI: PANC-1; for GI50: read-out: PANC-1 GI50; for LC50 (concentration for 50% net cell kill): read-out: PANC-1 LC50, PANC-1
Summary of the method: as §1

LoVo = test: Inhibition of cells growth by colorimetric assay (SRB), LoVo; type: cell-based; settings: SRB, 48 hours exposure; for GI50 / LC50 (concentration for 50% cell killing): Homo sapiens, LoVo, 48 h; for GI50 / LOVO TGI: LOVO; for GI50: read-out: LOVO GI50; for LC50 (concentration for 50% cell killing): read-out: LOVO LC50, LOVO
Summary of the method: as §1

HMEC1 = test: Inhibition of cells growth by colorimetric assay (SRB), HMEC1; type: cell-based; settings: SRB, 48 hours exposure; for GI50 / LC50: Homo sapiens, HMEC-1, 48 h; for HMEC-1 TGI / GI50: HMEC-1; for GI50: read-out: HMEC-1 GI50; for LC50: read-out: HMEC-1 LC50, HMEC-1
Summary of the method: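 Growth inhibition is measured by sulforhodamine B staining of TCA-fixed cells after 48 h of compound exposure across 10 to 10^−8 μg/ml. Cells are seeded at 5×10^3 per well and grown drug-free for 18 h beforehand; absorbance at 490 nm yields GI, TGI and LC values.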

LoVo-Dox = test: Inhibition of cells growth by colorimetric assay (SRB), LoVo-Dox; type: cell-based; settings: SRB, 48 hours exposure; for GI50 / CC50: Homo sapiens, 48 h; for GI50 / LOVO-DOX TGI: LOVO-DOX; for GI50: read-out: LOVO-DOX GI50; for CC50: read-out: LOVO-DOX LC50, LOVO-DOX
Summary of the method: as §1

A-549 = test: Inhibition of cells growth by colorimetric assay (SRB), A-549; type: cell-based; settings: SRB, 48 hours exposure; for GI50 / LC50 (concentration for 50% cell killing): Homo sapiens, A549, 48 h; for LC50 (concentration for 50% cell killing): read-out: A-549 LC50, A-549
Summary of the method: as §1

SK-MEL-28 = test: Inhibition of cells growth by colorimetric assay (SRB), SK-MEL-28; type: cell-based; settings: SRB, 48 hours exposure; for GI50 / CC50: Homo sapiens, SK-MEL-28, 48 h; for GI50 / MEL-28 TGI: MEL-28; for GI50: read-out: MEL-28 GI50; for CC50: read-out: MEL-28 LC50, MEL-28
Summary of the method: as §1

IGROV-ET = test: Inhibition of cells growth by colorimetric assay (SRB), IGROV-ET; type: cell-based; settings: SRB, 48 hours exposure; for GI50 / CC50: Homo sapiens, 48 h; for GI50 / IGROV-ET TGI: IGROV-ET; for GI50: read-out: IGROV-ET GI50; for CC50: read-out: IGROV-ET LC50, IGROV-ET
Summary of the method: as §1

LNCaP = test: Inhibition of cells growth by colorimetric assay (SRB), LNCaP; type: cell-based; settings: SRB, 48 hours exposure; for GI50 / CC50: Homo sapiens, LNCaP, 48 h; for GI50: read-out: LNCAP GI50, LNCAP; for CC50: read-out: LNCAP LC50, LNCAP
Summary of the method: as §1

HT-29 = test: Inhibition of cells growth by colorimetric assay (SRB), HT-29; type: cell-based; settings: SRB, 48 hours exposure; for GI50 / LC50 (concentration for 50% cell killing): Homo sapiens, HT-29, 48 h; for HT-29 TGI / GI50: HT-29; for GI50: read-out: HT-29 GI50; for LC50 (concentration for 50% cell killing): read-out: HT-29 LC50, HT-29
Summary of the method: as §1

From the text for Heart: (§2) Toxicity was asssessed by the methods reported in Toxicology in Vitro, 15 (2001) 571-577, J. Luber Narod et al.: “Evaluation of the use of in vitro methodolodies as tools for screening new compounds for potential in vivo toxicity”.
From the text for Kidney: as §2
From the text for Liver: as §2
From the text for Myelo: as §2
From the text for Skeletal: as §2

In the case of `COc1cc2c(cc1OC)[C@@]1(CS[C@@H]3c4c(OC(C)=O)c(C)c5c(c4[C@H](COC1=O)N1C3[C@H]3c4c(cc(C)c(OC)c4OC)C[C@@H]([C@@H]1O)N3C)OCO5)NCC2` (stereo partly shown) [Compound 87], the GI50 (SK-BR-3) is reported as 16.5 nM, the CC50 (SK-BR-3) is reported as 101 nM and the “SK-BR3 TGI” value (SK-BR-3) is reported as 4.08E-08. For the same compound, the “Toxicity Data Heart” value (Heart) was 3.60E-08, the GI50 (K-562) was 0.871 nM and the LC50 (50% cell killing) (K-562) was 7.15 nM. For the same compound, the “K-562 TGI” value (K-562) was 2.96E-09, the GI50 (SK-OV-3) was 21.6 nM and the LC50 (SK-OV-3) was 8990 nM. For the same compound, the “SK-OV3 TGI” value (SK-OV-3) was 6.56E-08, the “Toxicity Data Skeletal” value (Skeletal) was 2.00E-07 and the “Toxicity Data Liver” value (Liver) was 6.18E-08. For the same compound, the GI50 (IGROV-1) was 4.8 nM, the CC50 (IGROV-1) was 80.4 nM and the “IGROV TGI” value (IGROV-1) was 1.63E-08. The “DU-145 TGI” value (DU-145) was 5.22E-08, the GI50 (DU-145) was 13.5 nM and the CC50 (DU-145) was 180 nM. For the same compound, the GI50 (PANC-1) was 25.3 nM, the LC50 (concentration for 50% net cell kill) (PANC-1) was 876 nM and the “PANC-1 TGI” value (PANC-1) was 7.39E-08. For the same compound, the GI50 (LoVo) was 22.7 nM, the LC50 (concentration for 50% cell killing) (LoVo) was 123 nM and the “LOVO TGI” value (LoVo) was 5.27E-08. For the same compound, the “HMEC-1 TGI” value (HMEC1) was 9.65E-08, the GI50 (HMEC1) was 16.7 nM and the LC50 (HMEC1) was 12700 nM. The “Toxicity Data Myelo” value (Myelo) was 2.44E-07, the GI50 (LoVo-Dox) was 38.7 nM and the CC50 (LoVo-Dox) was 12700 nM. The “LOVO-DOX TGI” value (LoVo-Dox) was 1.42E-07, the “TGI A-549” value (A-549; A-549) was 4.77E-08 and the GI50 (A-549; A-549, read-out: GI50 A-549) was 23.8 nM. It also gave an LC50 (concentration for 50% cell killing) (A-549) of 95.8 nM, a GI50 (SK-MEL-28) of 19.2 nM and a CC50 (SK-MEL-28) of 109 nM. The “MEL-28 TGI” value (SK-MEL-28) was 4.57E-08, the “Toxicity Data Kidney” value (Kidney) was 8.09E-08 and the GI50 (IGROV-ET) was 28.4 nM. The CC50 (IGROV-ET) was 5840 nM, the “IGROV-ET TGI” value (IGROV-ET) was 7.77E-08 and the GI50 (LNCaP) was 4.73 nM. For the same compound, the CC50 (LNCaP) was 40.5 nM, the “LNCAP TGI” value (LNCaP) was 1.12E-08 and the “HT-29 TGI” value (HT-29) was 1.12E-07. For the same compound, the GI50 (HT-29) was 24.4 nM and the LC50 (concentration for 50% cell killing) (HT-29) was 380 nM.

In the case of `COc1cc2c(cc1O)CCN(C)[C@]21CS[C@@H]2c3c(OC(C)=O)c(C)c4c(c3[C@H](COC1=O)N1C2[C@H]2c3c(cc(C)c(OC)c3O)C[C@@H]([C@@H]1O)N2C)OCO4` (stereo partly shown) [Compound 93], the GI50 (SK-BR-3) is reported as 0.445 nM, the CC50 (SK-BR-3) is reported as 9.5 nM and the “SK-BR3 TGI” value (SK-BR-3) is reported as 1.96E-09. For the same compound, the “Toxicity Data Heart” value (Heart) was 4.46E-08, the GI50 (K-562) was 0.611 nM and the LC50 (50% cell killing) (K-562) was 9540 nM. The “K-562 TGI” value (K-562) was 1.29E-08, the GI50 (SK-OV-3) was 0.409 nM and the LC50 (SK-OV-3) was 12900 nM. The “SK-OV3 TGI” value (SK-OV-3) was 1.29E-09, the “Toxicity Data Skeletal” value (Skeletal) was 5.52E-10 and the “Toxicity Data Liver” value (Liver) was 1.13E-08. For the same compound, the GI50 (IGROV-1) was 0.214 nM, the CC50 (IGROV-1) was 129 nM and the “IGROV TGI” value (IGROV-1) was 6.46E-10. For the same compound, the “DU-145 TGI” value (DU-145) was 6.30E-10, the GI50 (DU-145) was 0.331 nM and the CC50 (DU-145) was 1.29 nM. The GI50 (PANC-1) was 0.314 nM, the LC50 (concentration for 50% net cell kill) (PANC-1) was 12900 nM and the “PANC-1 TGI” value (PANC-1) was 1.29E-09. For the same compound, the GI50 (LoVo) was 0.768 nM, the LC50 (concentration for 50% cell killing) (LoVo) was 12900 nM and the “LOVO TGI” value (LoVo) was 4.58E-09. The “HMEC-1 TGI” value (HMEC1) was 1.55E-10, the GI50 (HMEC1) was 0.037 nM and the LC50 (HMEC1) was 0.487 nM. The “Toxicity Data Myelo” value (Myelo) was 3.35E-09, the GI50 (LoVo-Dox) was 7.71 nM and the CC50 (LoVo-Dox) was 12900 nM. The “LOVO-DOX TGI” value (LoVo-Dox) was 9.87E-08, the “A-549 TGI” value (A-549; A-549) was 2.90E-09 and the GI50 (A-549; A-549, read-out: A-549 GI50) was 0.463 nM. For the same compound, the LC50 (concentration for 50% cell killing) (A-549) was 12.9 nM, the GI50 (SK-MEL-28) was 0.281 nM and the CC50 (SK-MEL-28) was 3.58 nM. The “MEL-28 TGI” value (SK-MEL-28) was 6.24E-10, the “Toxicity Data Kidney” value (Kidney) was 6.32E-08 and the GI50 (IGROV-ET) was 21.5 nM. The CC50 (IGROV-ET) was 12900 nM, the “IGROV-ET TGI” value (IGROV-ET) was 1.31E-07 and the GI50 (LNCaP) was 2.85 nM. For the same compound, the CC50 (LNCaP) was 129 nM, the “LNCAP TGI” value (LNCaP) was 6.77E-09 and the “HT-29 TGI” value (HT-29) was 1.29E-08. It also gave a GI50 (HT-29) of 0.635 nM and an LC50 (concentration for 50% cell killing) (HT-29) of 12900 nM.
